Data on one compound can be found in US20170003292A1, “PAXIP1 AS A BIOMARKER FOR WEE1 INHIBITOR THERAPY” (H. LEE MOFFITT CANCER CENTER AND RESEARCH INSTITUT INC., priority 2014, published 2017).

What all share (type): cell-based
Assay [1] has as its system H322 cells. In words: caspase-3 mediated apoptosis in H322 cells overexpressing PAXIP1. The following applies: PAXIP1 overexpression, treated over 72 hours, compared to cells with low levels of PAXIP1.
The test system of the next assay is lung cancer cell lines. In words: small-molecule inhibitor screen, apoptosis in lung cancer cell lines. The following applies: AZD1775 in combination with cisplatin; multiple lung cancer cell lines. An excerpt:
Since posttranslational phosphorylations are used by the DDR to coordinate cellular response to damage, 18 kinases found in this tBRCT PPIN were examined using a small-molecule inhibitor screen.

For another assay, the system named is WEE1. Description: p-CDC2 (p-CDK1) blots as marker for WEE1 inhibition in lung cancer cell lines. The note with it: 15 lung cancer cell lines; AZD1775 as single agent or in combination with cisplatin; in lines with detectable (or elevated) PAXIP1 and WEE1. From the text: FIG. 2 is a series of blots showing PAXIP1, WEE1, and p-CDC2 (a.k.a. p-CDK1) levels in lung cancer cell lines treated with AZD1775 and Cisplatin. D: DMSO; M: AZD1775 only; C: Cisplatin only; M+C: AZD1775 and Cisplatin combination. AZD1775 is an ATP mimetic that targets the kinase activity of WEE1 and is currently being evaluated in clinical trials for several tumor types. Phosphorylation of CDC2 (a.k.a. CDK1) by WEE1 can be used as a marker for WEE1 inhibition.

In assay [2] the test system is lung cancer cell lines H322, H1648, H1395, H157. Description: cell viability by CellTiterGlo with synergy scores (Bliss model of independence). The note with it: cells that express both PAXIP1 and WEE1; 72 h treatment; combination with cisplatin. The protocol:
Lung adenocarcinoma cell lines 1-H322 (FIGS. 5A, 5B), H1648 (FIGS. 5E, 5F) and H1395 (FIGS. 5G, 5H) and a squamous lung cancer cell line H157 (FIG. 5C, 5D) were treated with AZD1775 and cisplatin either alone or in combination for 1 h and p-CDK1, PAXIP1 and WEE1 levels were measured (FIGS. 5A, 5C, 5E, […]). Cell lines were treated with AZD1775 and cisplatin for 72 h, cell viability was measured by CellTiterGlo and synergy scores were calculated (FIGS. 5B, 5D, 5F, 5H). Depicted in FIGS. 5B, 5D, 5F, and 5H are the three-dimensional dose-response surface curves with various combinations of drug concentrations (left) and the deviation from expected additive values determined by Bliss model of independence (right).
For orientation: In ATP-based viability assays light output follows the ATP content of the culture.

Assay [3] deals with H322 cells. In words: mitotic index at the G2/M checkpoint in H322 cells overexpressing full length PAXIP1. The following applies: H322 cells with overexpression of full length PAXIP1, after AZD1775 treatment.
Assay [4] concerns WEE1 and PAXIP1 positive patient-derived xenografts (PDX). Description: 3-D clonogenic assay of patient-derived xenograft (PDX) lung tumors, Chou-Talalay combination index. The note with it: combination with cisplatin. An excerpt: Two tumors that were selected from a TMA of 68 lung tumors for 3-D clonogenic assays to test synergy of the combination of AZD1775 and cisplatin in these tumors. FIGS. 7A and 7C show percentage of tumor inhibition with different concentrations of AZD1775 and cisplatin. FIGS. 7B and 7D show combination index (CI) values obtained by applying the chou-[…] analysis to the percent inhibition values.
(In general: A xenograft is tissue or cells of one species grown in another, often human tumour cells in immunodeficient mice.)

Take `C=CCn1c(=O)c2cnc(Nc3ccc(N4CCN(C)CC4)cc3)nc2n1-c1cccc(C(C)(C)O)n1` [AZD1775, 2-allyl-1-(6-(2-hydroxypropan-2-yl)pyridin-2-yl)-6-((4-(4-methylpiperazin-1-yl)phenyl)amino)-1H-pyrazolo[3,4-d]pyrimidin-3(2H)-one]: the caspase-3 mediated apoptosis result in the assay on H322 cells [1] was “sustained increase in apoptosis”; in the assay on H322 cells [1] (listed as AZD 1775), “sustained increase in caspase-3 mediated apoptosis”. In the assay on lung cancer cell lines, the apoptosis entry is given as “significant apoptosis”. Further, in the assay with WEE1, the CDC2 phosphorylation entry is listed as “repression of CDC2 phosphorylation”. The “synergy of AZD1775 and cisplatin (cell viability)” value in assay [2] is on record as “exhibit synergy”. The “mitotic index at the G2/M checkpoint” value in the assay on H322 cells [3] is given as “increased mitotic index”. For the same compound, the “synergy of AZD1775 and cisplatin (tumor inhibition, combination index)” value in assay [4] is “exhibit synergy”.
